{"source": "patent US5268391A", "about": "“Propargyl-terminated cycloalkylalkyl-P2-site substituted aryl/alkylsulfonyl-terminated alanine amino-diol compounds for treatment of hypertension” (C. D. Searle & Co., priority 1992, dated 1993)", "origin": "cited, not measured here", "tested_on": "hog renin", "conditions": "after the injection of hog renin into nephrectomized rats", "note": "Where a SMILES comes first, the peptide text is derived from it. [ ]: non-standard residue; d: D form. The star is where a group is joined. Sta = CC(C)C[C@H](N)[C@@H](O)CC(=O)O; Isovaleryl = CC(C)CC(=O)*", "data": [{"smiles": "CC(C)CC(=O)N[C@H](C(=O)N[C@H](C(=O)N[C@@H](CC(C)C)[C@@H](O)CC(=O)N[C@@H](C)C(=O)N[C@@H](CC(C)C)[C@@H](O)CC(=O)O)C(C)C)C(C)C", "note": "[pepstatin] (Isovaleryl-VV[Sta]A[Sta]-OH)", "values": [{"measurement": "blood pressure in vivo", "value": "reduce blood pressure"}]}]}
